{
  "source": "paper PMC4245125",
  "about": "“Pharmacological and Behavioral Characterization of D-473, an Orally Active Triple Reuptake Inhibitor Targeting Dopamine, Serotonin and Norepinephrine Transporters” (PLoS ONE, 2014)",
  "key": {"[1]": {"molecular_target": "D5 (Homo sapiens, UniProt P21918)", "sequence (P21918 whole entry)": "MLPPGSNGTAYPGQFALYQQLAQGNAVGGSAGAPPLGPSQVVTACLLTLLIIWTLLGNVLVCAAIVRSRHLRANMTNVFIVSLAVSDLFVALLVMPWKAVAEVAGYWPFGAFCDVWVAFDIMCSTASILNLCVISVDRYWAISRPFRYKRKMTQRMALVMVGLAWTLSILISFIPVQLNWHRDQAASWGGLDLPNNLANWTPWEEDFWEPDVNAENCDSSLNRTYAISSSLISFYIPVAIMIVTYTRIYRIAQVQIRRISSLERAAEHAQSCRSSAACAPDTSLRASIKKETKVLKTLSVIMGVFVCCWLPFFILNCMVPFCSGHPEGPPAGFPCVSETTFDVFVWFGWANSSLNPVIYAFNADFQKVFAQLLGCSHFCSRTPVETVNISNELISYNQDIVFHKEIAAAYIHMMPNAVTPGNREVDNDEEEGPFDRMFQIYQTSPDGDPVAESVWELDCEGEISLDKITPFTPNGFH", "assay": "NIMH PDSP receptor binding, D5"}, "[2]": {"molecular_target": "T1, Beta3 (Homo sapiens, UniProt P13945)", "T1 construct": "NIMH PDSP", "T1 sequence (P13945 whole entry)": "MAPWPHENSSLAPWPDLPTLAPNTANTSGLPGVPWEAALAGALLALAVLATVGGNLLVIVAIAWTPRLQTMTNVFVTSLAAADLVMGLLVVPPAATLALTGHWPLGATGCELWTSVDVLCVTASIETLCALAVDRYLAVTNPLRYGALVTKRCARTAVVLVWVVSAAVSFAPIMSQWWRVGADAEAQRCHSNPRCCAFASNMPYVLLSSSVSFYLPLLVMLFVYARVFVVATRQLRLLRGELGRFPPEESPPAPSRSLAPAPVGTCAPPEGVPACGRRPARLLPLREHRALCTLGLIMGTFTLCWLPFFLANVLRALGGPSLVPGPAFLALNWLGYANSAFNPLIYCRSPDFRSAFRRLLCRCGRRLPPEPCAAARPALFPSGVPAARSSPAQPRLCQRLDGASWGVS", "assay": "NIMH PDSP receptor binding, Beta3", "conditions": "[125I]Iodopindolol"}, "[3]": {"molecular_target": "T2, µ-Opioid (Homo sapiens, UniProt P35372)", "T2 construct": "purchased NIMH PDSP", "T2 sequence (P35372 whole entry)": "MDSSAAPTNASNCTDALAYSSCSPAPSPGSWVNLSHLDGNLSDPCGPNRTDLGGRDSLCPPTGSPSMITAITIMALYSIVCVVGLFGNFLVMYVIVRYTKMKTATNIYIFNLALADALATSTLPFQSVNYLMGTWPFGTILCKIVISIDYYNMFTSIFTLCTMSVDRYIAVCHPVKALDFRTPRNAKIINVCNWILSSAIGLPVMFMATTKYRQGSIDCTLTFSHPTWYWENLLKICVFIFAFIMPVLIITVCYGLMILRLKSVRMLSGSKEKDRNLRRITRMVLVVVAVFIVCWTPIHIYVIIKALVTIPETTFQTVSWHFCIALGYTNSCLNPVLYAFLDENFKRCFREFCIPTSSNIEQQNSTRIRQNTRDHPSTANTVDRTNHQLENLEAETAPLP", "assay": "NIMH PDSP receptor binding, µ-Opioid", "conditions": "[3H]Diprenorphine, read-out: % Inhibition of Binding at 10 µM D-473"}, "[4]": {"molecular_target": "T3, M3 (Homo sapiens, UniProt P20309)", "T3 construct": "purchased NIMH PDSP", "T3 sequence (P20309 whole entry)": "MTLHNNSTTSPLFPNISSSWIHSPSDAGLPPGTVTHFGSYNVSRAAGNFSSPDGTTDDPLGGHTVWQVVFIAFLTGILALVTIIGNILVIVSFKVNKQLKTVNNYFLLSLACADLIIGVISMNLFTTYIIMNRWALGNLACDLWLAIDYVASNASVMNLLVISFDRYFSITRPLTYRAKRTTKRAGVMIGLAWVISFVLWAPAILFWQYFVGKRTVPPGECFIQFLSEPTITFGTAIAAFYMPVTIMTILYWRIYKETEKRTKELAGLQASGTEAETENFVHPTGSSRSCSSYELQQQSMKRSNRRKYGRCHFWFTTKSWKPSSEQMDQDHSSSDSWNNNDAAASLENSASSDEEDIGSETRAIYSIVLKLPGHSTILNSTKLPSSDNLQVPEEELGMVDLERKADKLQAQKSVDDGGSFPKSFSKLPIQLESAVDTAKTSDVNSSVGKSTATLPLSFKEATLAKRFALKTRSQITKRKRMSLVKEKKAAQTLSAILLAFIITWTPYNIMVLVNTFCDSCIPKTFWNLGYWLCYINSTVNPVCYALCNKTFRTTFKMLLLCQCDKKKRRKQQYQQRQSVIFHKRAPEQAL", "assay": "biochemical", "conditions": "read-out: % Inhibition of Binding at 10 µM D-473"}, "[5]": {"system": "duration of immobility", "assay": "Forced swim test in rats after oral administration", "type": "in vivo", "conditions": "rat, sub-chronic", "protocol": "The experiment was carried out in the same way as described in our previous publications according to the Porsolt protocol, [30]. The subjects were male Sprague Dawley rats (Harlam Sprague Dawley Inc., Indianapolis, Ind., USA) weighing 200–225 g housed in cages for at least 1 week prior to testing. Animals were maintained in a temperature-controlled environment under a 12 hr light-dark cycle. All subjects were naive and were used only once. Rats were transported to the testing room at least for one hour prior to testing for acclimatization and adaptation purposes. Experimental sessions were conducted between 9 AM to 2 PM daily. Animals were assigned randomly and were placed individually in a glass cylinder (24.5 cm×35.5 cm) filled with water at room temperature to a depth of 22 cm. All the test sessions were recorded by video cameras. The water was changed in the beginning of each session and the temperature was maintained constant at 24–25°C. Rats were judged to be immobile if they made only minimal movement, barely keeping afloat. The test procedure consisted of a pretest and test session separated by 24 h. During the pretest period, rats were placed in the swim chamber for 15 min. Followed by the initial swim exposure; rats were patted dry and were transferred to the individual cages. Drugs or vehicle were then orally administered (p.o) 15 min after the initial swim exposure and were then transported to their home cages. On the following day the rats were brought back to the testing room at least 1 h before the beginning of test session. Rats were administered either drugs or vehicle 1 h before the swim test. Each rat underwent a 5-min swim session, which was videotaped and scored later. In the case of imipramine, pretreatment time was 30 min. Drug solutions were prepared freshly on the test days. Compound D-473 was dissolved in 3% beta-hydroxy propyl cyclodextrin solution. All drug and vehicle preparations were administered orally. D-473 was administered at a dose of 5, 10, 25 and 50 mg/kg and the volume was maintained at 1.2 mL/rat. Drug or vehicle was administered 1 h prior to testing for forced swimming. An individual, blinded to the treatment, scored the videotapes for immobility. Immobility scores were analyzed by one way ANOVA test. Behavioral results were analyzed with Prism 6.0 (GraphPad Software, San Diego, CA). The immobility time for forced swimming test was analyzed by one-way ANOVA (analysis of variance) followed by post Dunnett’s multiple comparison test vs. vehicle. Data for vehicle was used as negative control, respectively. Statistical significance was assumed in analysis if p≤0.05."}, "[6]": {"system": "extracellular DA, 5-HT, NE and metabolites in the dorsal lateral striatum (DLS)", "assay": "Microdialysis in dorsal lateral striatum, monoamines and metabolites", "type": "in vivo, rat", "conditions": "10 mg/kg i.p.", "protocol": "Adult male Sprague-Dawley rats (Harlan, Indianapolis, IN) weighing between 250 and 350 g were used for all experiments. Rats were housed in a temperature and humidity controlled room with 12 hr light/dark cycles with food and water available ad libitum. Adequate measures were taken to prevent animal pain and discomfort. All animals were treated as approved by the University of Michigan Unit for Laboratory Animal Medicine (ULAM) and in accordance with the National Institute of Health (NIH) Guidelines for the Care and Use of Laboratory Animals.\nRats were anesthetized with using an isoflurane vaporizer that was interfaced to a model 963 Ultra Precise stereotaxic instrument with 0.1 mm resolution (David Kopf Instruments, Tujunga, CA). Concentrically designed microdialysis probes (1 mm dialyzing length) were built in house then implanted bilaterally into the dorsal lateral striatum (DLS) and the medial prefrontal cortex (mPFC) according to the following coordinates from bregma and dura (in mm): AP +1, ML +3.3, DV –5.7 and AP +3, ML −0.5, DV −5, respectively (Paxinos and Watson, 2007). […] 1 mm probes were selected for higher spatial resolution and lower tissue damage compared to larger probes. Probes were secured to the skull by acrylic dental cement and metallic screws. Following surgery, rats were allowed to recover and experiments were run 24 hr after probe implantation. Microdialysis probes were flushed at a flow rate of 2 µl/min with aCSF (composition in mM: CaCl2 1.2; KCl 2.7, NaCl 148 and MgCl2 0.85) for 2 hr using a Chemyx Fusion 400 syringe pump (Chemyx, Stafford, TX). Perfusion flow rate was then reduced to 1 µl/min and samples were collected every 10 min. Baseline values were collected for 50 min and then the drug D-473 was injected (10 mg/kg, i.p.) and samples were collected for an additional 2 h. When experiments were completed, animals were euthanized and then brains were extracted and frozen at −80°C until histology.\nDopamine, norepinephrine (NE), serotonin (5HT), DOPAC, homovanillic acid (HVA) and 5-hydroxyindole acetic acid (5-HIAA) were analyzed using a benozyolation derivitization LC-MS method recently described by our laboratory. Briefly, 10 µl dialysate samples were derivatized by adding 5 µl of 100 mM sodium tetraborate, 5 µl of 2% benzoyl chloride in acetonitrile, and then 5 µl of a stable ^13C benzoylated isotope internal standard mixture was then added to improve quantitation. A Thermo Fisher Accela UHPLC (Waltham, MA) system automatically injected 5 µl of the sample onto a Waters (Milford, MA) HSS T3 reverse phase HPLC column (1 mm X 100 mm, 1.8 µm). Mobile phase A consisted of 10 mM ammonium formate and 0.15% formic acid. Mobile phase B was pure acetonitrile. Analytes were detected by an Thermo Fisher TSQ Quantum Ultra triple quadrupole mass spectrometer operating in multiple reaction monitoring (MRM) mode. The assay limits of detection were (nM in dialysate) for DA, 0.3; NE, 0.2; 5HT, 0.1; HVA, 0.5; DOPAC, 2; and 5HIAA, 5. […] Average standard deviation in above basal levels was 18%.\nAll neurochemical data were transformed into percent baseline with baseline values all averaging 100%. Statistical analysis was performed by t-test analysis of every point relative to baseline values (i.e. 100%) using Prism 6 (Graphpad Software Inc, La Jolla, CA). P values <0.05 were considered to be statistically significant."}},
  "note": "Entries after “also recorded” stand apart in the source; their conditions may differ.",
  "data": [
    {"smiles": "COc1ccc(CN[C@@H]2CO[C@H](C(c3ccc(F)cc3)c3ccc(F)cc3)C[C@H]2O)cc1", "note": "[Compound D-473, (2S,4R,5R)-2-(bis(4-fluorophenyl)methyl)-5-((4-methoxybenzyl)amino)tetrahydro-2H-pyran-4-ol]", "values": [
      {"measurement": "inhibition at 10 µM", "setting": "[1]; [3H]SCH 23390, 10 µM, read-out: % Inhibition of Binding at 10 µM D-473", "value": 74.7, "unit": "%"},
      {"measurement": "Ki", "setting": "[1]; [3H]SCH 23390, secondary assay, read-out: Ki for D-473", "value": 1570, "unit": "nM"},
      {"measurement": "inhibition at 10 µM", "setting": "[2]; 10 µM, read-out: % Inhibition of Binding at 10 µM D-473", "value": 61.2, "unit": "%"},
      {"measurement": "Ki", "setting": "[2]; secondary assay, read-out: Ki for D-473", "value": "> 10000", "unit": "nM"},
      {"measurement": "inhibition at 10 µM", "setting": "[3]", "value": 20.5, "unit": "%"},
      {"measurement": "inhibition at 10 µM", "setting": "[4]", "value": 6.9, "unit": "%"},
      {"measurement": "Duration of immobility in the forced swimming test", "setting": "[5]; 5 mg/kg p.o., vs vehicle", "value": "did not produce significant reduction in immobility"},
      {"measurement": "Duration of immobility in the forced swimming test", "setting": "[5]; 10 mg/kg p.o., vs vehicle (P<0.01), 10 mg/kg", "value": "robust, statistically significant effect; also recorded: statistically significant different compared to vehicle"},
      {"measurement": "Duration of immobility in the forced swimming test", "setting": "[5]; 25 mg/kg p.o., vs vehicle (P<0.01)", "value": "statistically significant different compared to vehicle"},
      {"measurement": "Duration of immobility in the forced swimming test", "setting": "[5]; 50 mg/kg p.o., vs vehicle (P<0.01)", "value": "statistically significant different compared to vehicle"},
      {"measurement": "Elevation of 5-HT over the basal level", "setting": "[6]", "value": "> 4", "unit": "fold"},
      {"measurement": "Increase in DA", "setting": "[6]", "value": 2, "unit": "fold"},
      {"measurement": "Increase in NE", "setting": "[6]", "value": 2, "unit": "fold"},
      {"measurement": "Reduction of DOPAC, maximal", "setting": "[6]", "value": "35–40%"},
      {"measurement": "Reduction of HVA, maximal", "setting": "[6]", "value": 20, "unit": "%"},
      {"measurement": "Extracellular 5-HT at the end of two hours, percent baseline", "setting": "[6]; baseline 100%", "value": 215, "unit": "%"},
      {"measurement": "Extracellular 5-HT, maximal, percent baseline", "setting": "[6]; baseline 100%", "value": 403, "unit": "%"},
      {"measurement": "Extracellular DA at the end of two hours, percent baseline", "setting": "[6]; baseline 100%", "value": 129, "unit": "%"},
      {"measurement": "Extracellular DA, maximal, percent baseline", "setting": "[6]; baseline 100%", "value": 274, "unit": "%"},
      {"measurement": "Extracellular NE at the end of two hours, percent baseline", "setting": "[6]; baseline 100%", "value": 142, "unit": "%"},
      {"measurement": "Extracellular NE, maximal, percent baseline", "setting": "[6]; baseline 100%", "value": 238, "unit": "%"}
    ]}
  ]
}
